{
  "source": "ChEMBL document CHEMBL2413072",
  "about": "“Synthesis and in vitro anticancer studies of novel C-2 arylidene congeners of lantadenes” (2013)",
  "format_in_all_cases": "functional",
  "key": {"[1]": {"tested_on": "PC-3", "test": "Growth inhibition of human PC3 cells by sulforhodamine B assay"}, "[2]": {"tested_on": "SNB-75", "test": "Growth inhibition of human SNB75 cells by sulforhodamine B assay"}, "[3]": {"tested_on": "SK-OV-3", "test": "Growth inhibition of human SKOV3 cells assessed as cell growth at 10^-8 M by sulforhodamine B assay", "conditions": "read-out: Activity"}, "[4]": {"tested_on": "CAKI-1", "test": "Growth inhibition of human CAKI-1 cells by sulforhodamine B assay"}, "[5]": {"tested_on": "OVCAR-4", "test": "Growth inhibition of human OVCAR4 cells assessed as cell growth at 10^-6 M by sulforhodamine B assay", "conditions": "read-out: Activity"}, "[6]": {"tested_on": "OVCAR-5", "test": "Growth inhibition of human OVCAR5 cells assessed as cell growth at 10^-4 M by sulforhodamine B assay", "conditions": "read-out: Activity"}, "[7]": {"tested_on": "A498", "test": "Growth inhibition of human A498 cells assessed as cell growth at 10^-8 M by sulforhodamine B assay", "conditions": "read-out: Activity"}, "[8]": {"tested_on": "MDA-MB-435", "test": "Growth inhibition of human MDA-MB-435 cells assessed as cell growth at 10^-4 M by sulforhodamine B assay", "conditions": "read-out: Activity"}, "[9]": {"tested_on": "MDA-MB-231", "test": "Growth inhibition of human MDA-MB-231 cells assessed as cell growth at 10^-6 M by sulforhodamine B assay", "conditions": "read-out: Activity"}, "[10]": {"tested_on": "M14", "test": "Growth inhibition of human M14 cells assessed as cell growth at 10^-6 M by sulforhodamine B assay", "conditions": "read-out: Activity"}, "[11]": {"tested_on": "SK-MEL-5", "test": "Growth inhibition of human SK-MEL-5 cells by sulforhodamine B assay"}, "[12]": {"tested_on": "NCI-H322M", "test": "Growth inhibition of human NCI-H322M cells assessed as cell growth at 10^-8 M by sulforhodamine B assay", "conditions": "read-out: Activity"}, "[13]": {"tested_on": "M14", "test": "Growth inhibition of human M14 cells by sulforhodamine B assay"}, "[14]": {"tested_on": "Malme-3M", "test": "Growth inhibition of human MALME-3M cells assessed as cell growth at 10^-4 M by sulforhodamine B assay", "conditions": "read-out: Activity"}, "[15]": {"tested_on": "K562", "test": "Growth inhibition of human K562 cells assessed as cell growth at 10^-6 M by sulforhodamine B assay", "conditions": "read-out: Activity"}, "[16]": {"tested_on": "OVCAR-5", "test": "Growth inhibition of human OVCAR5 cells by sulforhodamine B assay"}, "[17]": {"tested_on": "SK-OV-3", "test": "Growth inhibition of human SKOV3 cells assessed as cell growth at 10^-4 M by sulforhodamine B assay", "conditions": "read-out: Activity"}, "[18]": {"tested_on": "SK-OV-3", "test": "Growth inhibition of human SKOV3 cells assessed as cell growth at 10^-6 M by sulforhodamine B assay", "conditions": "read-out: Activity"}, "[19]": {"tested_on": "K562", "test": "Growth inhibition of human K562 cells assessed as cell growth at 10^-8 M by sulforhodamine B assay", "conditions": "read-out: Activity"}, "[20]": {"tested_on": "Malme-3M", "test": "Growth inhibition of human MALME-3M cells assessed as cell growth at 10^-7 M by sulforhodamine B assay", "conditions": "read-out: Activity"}, "[21]": {"conditions": "read-out: pLC50 (the source's name) (converted)"}, "[22]": {"conditions": "read-out: LC50 (the source's name)"}},
  "data": [
    {"smiles": "C/C=C(/C)C(=O)O[C@@H]1CC(C)(C)C[C@H]2C3=CC[C@@H]4[C@@]5(C)CCC(=O)C(C)(C)[C@@H]5CC[C@@]4(C)[C@]3(C)CC[C@@]12C(=O)O", "note": "[LANTADENE A]", "values": [
      {"measurement": "GI50", "setting": "[1]; read-out: pGI50 (converted)", "result": 2510, "unit": "nM"},
      {"measurement": "CC50", "setting": "[1]; [21]", "result": "> 100", "unit": "µM"},
      {"measurement": "TGI", "setting": "[1]; read-out: pTGI (converted)", "result": "> 100", "unit": "µM"},
      {"measurement": "GI50", "setting": "[2]; read-out: GI50", "result": 14.2, "unit": "µM"},
      {"measurement": "CC50", "setting": "[2]; [22]", "result": "> 100", "unit": "µM"},
      {"measurement": "TGI", "setting": "[2]; read-out: TGI", "result": "> 100", "unit": "µM"},
      {"measurement": "GI50", "setting": "[2]; read-out: pGI50 (converted)", "result": 14.1, "unit": "µM"},
      {"measurement": "CC50", "setting": "[2]; [21]", "result": "> 100", "unit": "µM"},
      {"measurement": "TGI", "setting": "[2]; read-out: pTGI (converted)", "result": "> 100", "unit": "µM"},
      {"measurement": "growth at 0.01 µM", "setting": "[3]", "result": 103, "unit": "%"},
      {"measurement": "GI50", "setting": "[4]; read-out: GI50", "result": 3.93, "unit": "µM"},
      {"measurement": "CC50", "setting": "[4]; [22]", "result": "> 100", "unit": "µM"},
      {"measurement": "TGI", "setting": "[4]; read-out: TGI", "result": "> 100", "unit": "µM"},
      {"measurement": "GI50", "setting": "[4]; read-out: pGI50 (converted)", "result": 3.89, "unit": "µM"},
      {"measurement": "CC50", "setting": "[4]; [21]", "result": "> 100", "unit": "µM"},
      {"measurement": "TGI", "setting": "[4]; read-out: pTGI (converted)", "result": "> 100", "unit": "µM"},
      {"measurement": "growth at 1 µM", "setting": "[5]", "result": 86, "unit": "%"},
      {"measurement": "growth at 100 µM", "setting": "[6]", "result": 42, "unit": "%"},
      {"measurement": "growth at 0.01 µM", "setting": "[7]", "result": 83, "unit": "%"},
      {"measurement": "growth at 100 µM", "setting": "[8]", "result": 25, "unit": "%"},
      {"measurement": "growth at 1 µM", "setting": "[9]", "result": 92, "unit": "%"},
      {"measurement": "growth at 1 µM", "setting": "[10]", "result": 80, "unit": "%"},
      {"measurement": "GI50", "setting": "[11]; read-out: GI50", "result": 1220, "unit": "nM"},
      {"measurement": "CC50", "setting": "[11]; [22]", "result": "> 100", "unit": "µM"},
      {"measurement": "TGI", "setting": "[11]; read-out: TGI", "result": 4.3, "unit": "µM"},
      {"measurement": "GI50", "setting": "[11]; read-out: pGI50 (converted)", "result": 1230, "unit": "nM"},
      {"measurement": "CC50", "setting": "[11]; [21]", "result": "> 100", "unit": "µM"},
      {"measurement": "TGI", "setting": "[11]; read-out: pTGI (converted)", "result": 4.27, "unit": "µM"},
      {"measurement": "growth at 0.01 µM", "setting": "[12]", "result": 99, "unit": "%"},
      {"measurement": "GI50", "setting": "[13]; read-out: GI50", "result": 4.53, "unit": "µM"},
      {"measurement": "CC50", "setting": "[13]; [22]", "result": "> 100", "unit": "µM"},
      {"measurement": "TGI", "setting": "[13]; read-out: TGI", "result": "> 100", "unit": "µM"},
      {"measurement": "GI50", "setting": "[13]; read-out: pGI50 (converted)", "result": 4.57, "unit": "µM"},
      {"measurement": "CC50", "setting": "[13]; [21]", "result": "> 100", "unit": "µM"},
      {"measurement": "TGI", "setting": "[13]; read-out: pTGI (converted)", "result": "> 100", "unit": "µM"},
      {"measurement": "growth at 100 µM", "setting": "[14]", "result": 17, "unit": "%"},
      {"measurement": "growth at 1 µM", "setting": "[15]", "result": 87, "unit": "%"},
      {"measurement": "GI50", "setting": "[16]; read-out: GI50", "result": 18.3, "unit": "µM"},
      {"measurement": "CC50", "setting": "[16]; [22]", "result": "> 100", "unit": "µM"},
      {"measurement": "TGI", "setting": "[16]; read-out: TGI", "result": "> 100", "unit": "µM"},
      {"measurement": "GI50", "setting": "[16]; read-out: pGI50 (converted)", "result": 18.2, "unit": "µM"},
      {"measurement": "CC50", "setting": "[16]; [21]", "result": "> 100", "unit": "µM"},
      {"measurement": "TGI", "setting": "[16]; read-out: pTGI (converted)", "result": "> 100", "unit": "µM"},
      {"measurement": "growth at 100 µM", "setting": "[17]", "result": 32, "unit": "%"},
      {"measurement": "growth at 1 µM", "setting": "[18]", "result": 103, "unit": "%"},
      {"measurement": "growth at 0.01 µM", "setting": "[19]", "result": 110, "unit": "%"},
      {"measurement": "growth at 0.1 µM", "setting": "[20]", "result": 96, "unit": "%"}
    ]}
  ]
}
